Experimental data reported in patent US20080249092A1, “Novel Quinoline Compounds Capable Of Binding At The Cb2 Receptor” (priority 2006, published 2008).
Structures can show the parent of a compound that is named as a salt.

The compounds below were run against T1, human cannabinoid CB2 receptor (Homo sapiens, UniProt P34972) (assay: Cannabinoid CB2 receptor agonist activity in yeast cells (FDGlu fluorescence)). Settings: not given.
T1 construct: expressed in transfected cells; host or cells: Saccharomyces cerevisiae strain MMY23 (cassette integrated at the ura3 locus, GPD promoter)
T1 sequence (P34972 whole entry): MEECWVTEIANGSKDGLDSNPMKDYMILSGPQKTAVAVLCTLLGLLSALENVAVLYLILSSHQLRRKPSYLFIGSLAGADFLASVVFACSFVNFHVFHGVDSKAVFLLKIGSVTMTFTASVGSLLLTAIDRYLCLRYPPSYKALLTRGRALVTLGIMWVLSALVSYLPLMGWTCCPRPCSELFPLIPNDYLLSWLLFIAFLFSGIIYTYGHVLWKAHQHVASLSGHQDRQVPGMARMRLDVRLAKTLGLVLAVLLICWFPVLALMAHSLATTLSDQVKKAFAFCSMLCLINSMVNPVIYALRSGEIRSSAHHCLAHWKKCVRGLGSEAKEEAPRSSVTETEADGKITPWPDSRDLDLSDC
Type: cell-based
Description: The cannabinoid CB2 receptor agonist activity of compounds of formula (I) was determined in accordance with the following experimental method.
Yeast (Saccharomyces cerevisiae) cells expressing the human cannabinoid CB2 receptor were generated by integration of an expression cassette into the ura3 chromosomal locus of yeast strain MMY23. This cassette consisted of DNA sequence encoding the human CB2 receptor flanked by the yeast GPD promoter to the 5′ end of CB2 and a yeast transcriptional terminator sequence to the 3′ end of CB2. MMY23 expresses a yeast/mammalian chimeric G-protein alpha subunit in which the C-terminal 5 amino acids of Gpa1 are replaced with the C-terminal 5 amino acids of human Gαi1/23 (as described in Brown et al. (2000), Yeast 16:11-22). Cells were grown at 30° C. in liquid Synthetic Complete (SC) yeast media (Guthrie and Fink (1991), Methods in Enzymology, Vol. 194) lacking uracil, tryptophan, adenine and leucine to late logarithmic phase (approximately 6 OD600/ml).
Agonists were prepared as 10 mM solutions in DMSO. EC50 values (the concentration required to produce 50% maximal response) were estimated using 4 fold dilutions of between 3- and 5-fold (BiomekFX, Beckman) into DMSO. Agonist solutions in DMSO (1% final assay volume) were transferred into black microtitre plates from NUNC Greiner (384-well). Cells were suspended at a density of 0.2 OD600/ml in SC media lacking histidine, uracil, tryptophan, adenine and leucine and supplemented with 10 mM 3-aminotriazole, 0.1 M sodium phosphate pH 7.0, and 120 μM fluorescein di-β-D-glucopyranoside (FDGlu). This mixture (50 ul per well) was added to agonist in the assay plates (Multidrop 384, Labsystems). After incubation at 30° C. for 24 hours, fluorescence resulting from degradation of FDGlu to fluorescein due to exoglucanase, an endogenous yeast enzyme produced during agonist-stimulated cell growth, was determined using a fluorescence microtitre plate reader (Tecan Spectrofluor or LJL Analyst excitation wavelength: 485 nm; emission wavelength: 535 nm). Fluorescence was plotted against compound concentration and iteratively curve fitted using a four parameter fit to generate a concentration effect value.
Efficacy (Emax) was calculated from the equation
Emax=Max[compound X]−Min[compound X]/Max[HU210]−Min[HU210]×100%
where Max[compound X] and Min[compound X] are the fitted maximum and minimum respectively from the concentration effect curve for compound X, and Max[HU210] and Min[HU210] are the fitted maximum and minimum respectively from the concentration effect curve for (6aR, 10aR)-3-(1,1′-Dimethylheptyl)-6a,7,10,10a-tetrahydro-1-hydroxy-6,6-dimethyl-6H-dibenzo[b,d]pyran-9-methanol (HU210; available from Tocris). Equieffective molar ratio (EMR) values were calculated from the equation
Where EC50 [compound X] is the EC50 of compound X and EC50 [HU210] is the EC50 of HU210.
pEC50 is the negative log of the EC50.

`O=S(=O)(c1ccc(Cl)cc1)c1cnc2c(NCC3CCOCC3)cccc2c1` [Example E3, 3-[(4-Chlorophenyl)sulfonyl]-N-(tetrahydro-2H-pyran-4-ylmethyl)-8-quinolinamine] was tested, and the EC50 was less than 1 µM.

Same assay, conditions: agonist activity; Saccharomyces cerevisiae cells expressing the human CB2 receptor; 24 hours at 30° C.; read-out: pEC50 at the CB2 receptor (converted)

`O=S(=O)(c1ccccc1)c1cnc2c(NCC3CCOCC3)cccc2c1` [Example E1, 3-(Phenylsulfonyl)-N-(tetrahydro-2H-pyran-4-ylmethyl)-8-quinolinamine] and `O=S(=O)(c1ccccc1)c1cnc2c(NCCC3CCOCC3)cccc2c1` [Example E6, 3-(Phenylsulfonyl)-N-[2-(tetrahydro-2H-pyran-4-yl)ethyl]-8-quinolinamine hydrochloride] cannot be ordered by EC50: less than 1 µM for the first, less than 1 µM for the second.

`O=S(=O)(c1ccccc1)c1cnc2c(NCCN3CCOCC3)cccc2c1` [Example E2, N-[2-(4-Morpholinyl)ethyl]-3-(phenylsulfonyl)-8-quinolinamine hydrochloride] and `O=S(=O)(c1ccccc1)c1cnc2c(NCCc3ccncc3)cccc2c1` [Example E5, 3-(Phenylsulfonyl)-N-[2-(4-pyridinyl)ethyl]-8-quinolinamine hydrochloride] cannot be ordered by EC50: less than 10 µM for the first, less than 1 µM for the second.

`O=S(=O)(c1ccccc1)c1cnc2c(NCc3cccnc3)cccc2c1` [Example E4, 3-(Phenylsulfonyl)-N-(3-pyridinylmethyl)-8-quinolinamine] and `Cc1cc(CCNc2cccc3cc(S(=O)(=O)c4ccccc4)cnc23)ccn1` [Example E7, N-[2-(2-methyl-4-pyridinyl)ethyl]-3-(phenylsulfonyl)-8-quinolinamine hydrochloride] cannot be ordered by EC50: less than 1 µM for the first, less than 1 µM for the second.
